pIC50: −log10 of the molar value. Read-outs that look alike come from different tables or passages of the source.
Key:
γδ2 T cells [1] = type: cell-based, human
Protocol: (§1) The plates were incubated at 37° C., 5% CO2.

γδ1 T cells = assay: CAR related lentivirus transduction of γδ1 T cells with small inhibitors; type: cell-based, human; settings: control finally around 2%
Protocol: (§2) For lentivirus transduction, 1×10^CFU lentivirus diluted in 200 ul PBS were added in a 24-well plate which were pre-coated with RetroNectin reagent (Takara) and centrifugated by 2,000 g for 2 hours at 32° C. After centrifugation, removed the supernatant and washed the plate with PBS three times slightly.
as §1
To test the application of these small molecule on improving the transduction rate of δδ1 T cells. We evaluated the transduction rate of δδ1 T cells with/without different dosage of small molecules.

γδ2 T cells [2] = assay: CAR (B7H3) related lentivirus transduction of γδ2 T cells with small inhibitors: transduction rate; type: cell-based, human
Protocol: VSV-G pseudotyped lentiviral vectors were applied in this method. 1×10^7 293T cells were plated into a poly-D-lysine coated 100 mm dish. Next day the cells were transfected with 6 μg of pCDH-EF1-MCS-T2A-copGFP plasmid (Addgene, Plasmid #72263) or pCDH-EF1-CAR-T2A-copGFP plasmid modified from pCDH-EF1-MCS-T2A-copGFP, 4 μg of pspAx2 (Addgene, Plasmid #12260), 2 μg of pCMV-VSV-G (Addgene, Plasmid #8454) using 30 ug PEI transfection regents. After 8 hours of transfection, the cell culture medium was changed. The supernatant were collected 48 hours and 72 hours later. Concentrated the virus with Lenti-X™ Concentrator (Takara) and monitored the virus titers by transduction of 293T cells and stored the concentrated virus in −80° C. until further use.
as §2
For the virus transduction of γδ2 T cells, seeded 1×10^PBMCs which were in vitro cultured after 48 hours in the γδ2 T cell culture medium mentioned above (Gibco serum free medium with rhIL-2 and ZOL). Added or not small inhibitors and mixed well and concentrated the cells by 800 g for 10 mins at 32° C. The plates were incubated at 37° C., 5% CO2. Discarded the small inhibitors regent by changing the cell culture medium 24 hours later.
Calculate the cell number by an automated cell counter and the transduction rate (GFP positive rate) was analyzed by flow cytometry every 2 to 3 days. The transduction rate was monitored in the gate of γδ2 or γδ1 T cells.

[3] = target: ubiquitin-specific protease USP7 (Homo sapiens, UniProt Q93009); settings: cited from earlier work
ubiquitin-specific protease USP7, sequence (Q93009 whole entry): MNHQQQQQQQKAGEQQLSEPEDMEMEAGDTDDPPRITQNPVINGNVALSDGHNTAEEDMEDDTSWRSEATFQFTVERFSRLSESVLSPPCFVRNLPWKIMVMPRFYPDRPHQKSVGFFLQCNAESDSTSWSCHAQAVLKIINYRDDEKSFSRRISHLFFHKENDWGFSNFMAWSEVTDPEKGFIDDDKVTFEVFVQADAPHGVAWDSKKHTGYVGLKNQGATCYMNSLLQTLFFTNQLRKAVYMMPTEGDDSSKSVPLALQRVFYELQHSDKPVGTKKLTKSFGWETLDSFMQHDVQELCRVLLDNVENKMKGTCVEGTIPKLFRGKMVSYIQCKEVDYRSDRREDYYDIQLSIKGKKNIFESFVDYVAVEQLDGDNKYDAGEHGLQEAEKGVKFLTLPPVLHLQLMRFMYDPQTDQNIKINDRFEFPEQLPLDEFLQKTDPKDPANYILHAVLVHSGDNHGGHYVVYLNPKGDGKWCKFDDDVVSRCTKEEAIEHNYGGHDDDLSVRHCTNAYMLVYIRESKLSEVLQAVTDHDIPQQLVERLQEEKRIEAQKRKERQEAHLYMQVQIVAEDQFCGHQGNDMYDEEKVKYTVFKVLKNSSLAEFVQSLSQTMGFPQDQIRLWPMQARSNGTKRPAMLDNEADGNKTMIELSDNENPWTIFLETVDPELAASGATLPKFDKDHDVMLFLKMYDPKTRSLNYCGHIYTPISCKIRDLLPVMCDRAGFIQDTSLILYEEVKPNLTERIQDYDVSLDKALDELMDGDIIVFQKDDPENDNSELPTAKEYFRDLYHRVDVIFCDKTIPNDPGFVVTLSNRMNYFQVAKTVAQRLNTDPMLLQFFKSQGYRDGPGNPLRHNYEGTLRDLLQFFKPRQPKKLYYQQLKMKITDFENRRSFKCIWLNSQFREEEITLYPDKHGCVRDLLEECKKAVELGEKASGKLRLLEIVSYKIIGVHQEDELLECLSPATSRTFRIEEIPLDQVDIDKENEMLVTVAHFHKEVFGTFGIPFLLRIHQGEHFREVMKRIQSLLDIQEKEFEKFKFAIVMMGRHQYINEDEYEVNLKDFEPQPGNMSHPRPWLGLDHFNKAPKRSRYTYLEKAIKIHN

[4] = target: T1, ubiquitin-specific protease USP21 (Homo sapiens, UniProt Q9UK80); settings: cited from earlier work
T1 sequence (Q9UK80 1-565): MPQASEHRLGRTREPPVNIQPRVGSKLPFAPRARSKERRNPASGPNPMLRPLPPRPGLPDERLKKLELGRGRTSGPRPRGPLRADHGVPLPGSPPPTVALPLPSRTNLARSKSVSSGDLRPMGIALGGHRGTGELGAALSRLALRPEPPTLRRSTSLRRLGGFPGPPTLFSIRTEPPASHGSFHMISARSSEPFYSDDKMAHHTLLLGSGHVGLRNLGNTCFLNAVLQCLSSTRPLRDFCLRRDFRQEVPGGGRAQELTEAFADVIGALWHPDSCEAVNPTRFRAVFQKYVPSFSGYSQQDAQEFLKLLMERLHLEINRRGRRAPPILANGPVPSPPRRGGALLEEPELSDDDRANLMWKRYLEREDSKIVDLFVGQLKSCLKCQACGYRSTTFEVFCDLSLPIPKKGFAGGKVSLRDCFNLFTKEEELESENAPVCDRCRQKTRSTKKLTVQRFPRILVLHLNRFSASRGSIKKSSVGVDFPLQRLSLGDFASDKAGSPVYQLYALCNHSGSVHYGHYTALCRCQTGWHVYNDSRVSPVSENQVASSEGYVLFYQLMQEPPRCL

In the case of `Nc1ncc2[nH]cnc2n1` [2-Aminopurine], the cell growth (γδ2 T cells [1]; 5 uM to 500 uM) was “did not impair the cell growth”, the “effect on transduction rate of γδ1 T cells” value (“effect … of γδ1 T cells” for short) (γδ1 T cells; 500 uM) was “could improve the transduction rate” and the “effect on transduction rate” value (γδ2 T cells [2]; 5 uM to 500 uM) was “enhance the transduction rate in a dosage dependent manner”. The transduction rate (γδ2 T cells [2]; 500 uM, control around 5% at Day10) was “around 60%”.
For `COc1cc(O)c2c(c1)/C=C/C[C@H](O)[C@H](O)C(=O)/C=C\C[C@H](C)OC2=O` [(5Z)-7-Oxozeaenol], the cell growth (γδ2 T cells [1]; 0.6 uM and 6 uM) was “did not influence the cell growth”, the cell growth (γδ2 T cells [1]; 60 uM compared with 6 uM) was “impaired the cell growth” and the “effect … of γδ1 T cells” value (γδ1 T cells; 6 uM) was “could improve the transduction rate”. For the same compound, the transduction rate (γδ2 T cells [2]; 0.6 uM, control around 5% at Day10) was “higher than 20%”, the transduction rate (γδ2 T cells [2]; 6 uM, control around 5% at Day10) was “higher than 30%” and the “effect on transduction rate” value (γδ2 T cells [2]; 60 uM compared with 6 uM) was “did not perform better to improve the transduction rate”.
For `Cc1ccc(S(=O)(=O)/C=C/C#N)cc1` [BAY11-7082], the pIC50 [3] is listed as 6.72, the cell growth (γδ2 T cells [1]; 0.5 uM to 50 uM, higher dosage, less total cell number) is listed as “impaired the cell growth in a dosage dependent manner” and the “effect … of γδ1 T cells” value (γδ1 T cells; 50 uM) is listed as “could improve the transduction rate”. For the same compound, the pIC50 [4] was 6.02, the “effect on transduction rate” value (γδ2 T cells [2]; 0.5 uM to 50 uM) was “enhance the transduction rate in a dosage dependent manner” and the transduction rate (γδ2 T cells [2]; 50 uM, control around 5% at Day10) was “higher than 70%”.
For `CC(C)C[C@H](NC(=O)[C@H](Cc1ccccc1)NC(=O)c1cnccn1)B(O)O` [Bortezomib], the cell growth (γδ2 T cells [1]; 0.04 uM, 0.4 uM, 4 uM) was “impaired the cell growth in a dosage dependent manner”, the cell number (γδ2 T cells [1]; 0.4 uM and 4 uM) was “significantly cell number loss” and the “effect … of γδ1 T cells” value (γδ1 T cells; 0.04 μM, 0.4 μM or 4 μM) was “All the molecules except for Bortezomib could improve the transduction rate”. For the same compound, the transduction rate (γδ2 T cells [2]; 0.04 uM, control around 5% at Day10) was about 50% and the transduction rate (γδ2 T cells [2]; 0.4 uM and 4 uM, control around 5% at Day10) was “higher than 20%”.
With `COc1cc(/C=C/C(=O)CC(=O)/C=C/c2ccc(O)c(OC)c2)ccc1O` [Curcumin] the cell growth (γδ2 T cells [1]; 10 uM) was “inhibited the cell growth slightly”, the cell growth (γδ2 T cells [1]; 100 uM) was “significantly impaired the cell growth” and the cell growth (γδ2 T cells [1]; luM (low dosage)) was “enhanced the cell growth”. For the same compound, the “effect … of γδ1 T cells” value (γδ1 T cells; 10 uM) was “could improve the transduction rate”, the transduction rate (γδ2 T cells [2]; 10 uM, day 10, control around 5%) was “higher than 20%” and the “effect on transduction rate” value (γδ2 T cells [2]; 100 uM (highest dosage)) was “slightly enhance the transduction rate”. The “effect on transduction rate” value (γδ2 T cells [2]; luM (low dosage)) was “did not enhance the transduction rate”.
In the case of `C[C@@H]1C[C@H]2[C@@H]3CCC4=CC(=O)C=C[C@]4(C)[C@@]3(F)[C@@H](O)C[C@]2(C)[C@@]1(O)C(=O)CO` [Dexamethasone], the cell growth (γδ2 T cells [1]; 0.064 uM to 6.4 uM) was “did not impair the cell growth” and the transduction rate (γδ2 T cells [2]; 6.4 uM, control around 5% at Day10) was “higher than 25%”.
With `O=C(Nc1nc2ccccc2n1CCN1CCOCC1)c1cccc([N+](=O)[O-])c1` [IRAK1/4 Inhibitor I] the cell growth (γδ2 T cells [1]; 0.03 uM to 3 uM) was “did not impair the cell growth”, the “effect … of γδ1 T cells” value (γδ1 T cells; 0.3 uM) was “could improve the transduction rate” and the “effect on transduction rate” value (γδ2 T cells [2]; 0.03 uM to 3 uM) was “enhance the transduction rate in a dosage dependent manner”. The transduction rate (γδ2 T cells [2]; 3 uM, control around 5% at Day10) was “higher than 35%”.

From patent US20250262241A1, “METHODS TO IMPROVE STABILITY OF VIRUS TRANSDUCTION OF y8 T CELLS AND APPLICATIONS THEREOF” (UNICET BIOTECH CO. LLC., priority 2021, published 2025)
